# Test results: patent publication US20080280953A1, “Agents Used for the Treatment of Seeds” (Bayer Cropscience AG, priority 2004, published 2008)
# Legend:
# Format in all cases: in vivo
# [1] = system: green peach aphid (Myzus persicae); test: Myzus test (spray treatment), Chinese cabbage leaf sections; conditions: for pest or weed control at 500 g/ha: Myzus persicae, 120 h, after 5 d, read-out: Death rate in % after 5 d; for activity after 5 days: 500 g/ha
# Method: (§1) To prepare a suitable active compound preparation 1 part by weight of the active compound is mixed with the given amount of solvent and emulsifier and the concentrate is diluted to the desired concentration with water containing emulsifier.
# Chinese cabbage leaf sections (Brassica pekinensis) infested with all stages of the green peach aphid (Myzus persicae) are sprayed with an active compound preparation at the desired concentration.
# After the desired time the activity in % is determined. Here 100% means that all aphids were killed; 0% means that no aphids were killed.
# [2] = system: cotton aphid (Aphis gossypii); test: Aphis gossypii test, immersion of cotton leaves; conditions: 100 g/ha (so in the source), cotton leaves immersed
# Method: as §1
# Cotton plant leaves (Gossypium hirsutum) heavily infected with the cotton aphid (Aphis gossypii) are treated by immersing in the active compound preparation at the desired concentration. After the desired time the death rate in % is determined. Here 100% means that all aphids were killed; 0% means that no aphids were killed.
# [3] = system: rice brown plant hopper (Nilaparvata lugens); test: Nilaparvata lugens test; hydroponic treatment (NILALU SYS); conditions: 500 g/ha
# Method: To prepare a suitable active compound preparation I part by weight of the active compound is mixed with the given amount of solvent and emulsifier and the concentrate is diluted to the desired concentration with water containing emulsifier.
# The active compound preparation is pipetted into water. […] Infection is then carried out with rice brown plant hopper (Nilaparvata lugens).
# After the desired time the activity in % is determined. Here 100% means that all plant hoppers were killed; 0% means that no plant hoppers were killed.
# [4] = system: eggs of the cotton boll worm (Heliotis virescens); test: Heliothis virescens test (spray treatment); conditions: 500 g/ha, spray on soy bean leaves
# Method: as §1
# Soy bean leaves (Glycine max.) are sprayed with an active compound preparation at the desired concentration and after drying were infected with eggs of the cotton boll worm (Heliotis virescens).
# After the desired time the activity in % is determined. Here 100% means that all eggs were killed; 0% means that no eggs were killed.
# [5] = system: caterpillars of the fall army worm (Spodoptera frugiperda); test: Spodoptera frugiperda test (spray treatment); conditions: 500 g/ha
# Method: as §1
# Maize leaf sections (Zea mays) are sprayed with an active compound preparation at the desired concentration and after drying treated with caterpillars of the fall army worm (Spodoptera frugiperda).
# After the desired time the activity in % is determined. Here 100% means that all caterpillars were killed; 0% means that no caterpillars were killed.
# Lucilia cuprina larvae = test: Fly larvae test; conditions: 100 ppm
# Method: 10 mg active compound were dissolved in 0.5 ml dimethylsulphoxide. To prepare a suitable formulation the active compound solution is diluted with water to the respective desired concentration.
# About 20 Lucilia cuprina larvae are placed in a test tube that contains ca. 1 cm^3 horse flesh and 0.5 ml of the active compound preparation under test.
# After the desired time the death rate in % is determined. Here 100% means that all larvae were killed; 0% means that no larvae were killed.
# [6] = system: green peach aphid (Myzus persicae); test: Myzus persicae test (hydroponic treatment); conditions: pea plant; for activity after 7 days: 20 ppm
# Method: To prepare a suitable active compound preparation 1 part by weight of the active compound is mixed with the given amount of solvent and emulsifier and the concentrate is diluted to the desired concentration with water.
# The active compound preparation is mixed with water. The concentration given refers to the amount of active compound per unit volume water (mg/l=ppm). The treated water is placed into a vessel with one pea plant (Pisum sativum). After the prescribed time infection with the green peach aphid (Myzus persicae) is carried out.
# After the desired time the death rate in % is determined. Here 100% means that all aphids were killed; 0% means that no aphids were killed.
# [7] = system: eggs of the diamond back moth (Plutella xylostella); test: Plutella test, artificial diet; conditions: 1000 g/ha (so in the source), on artificial diet
# Method: To prepare a suitable active compound preparation 1 part by weight active compound was mixed with the given amount of solvent and the concentrate was diluted to the desired concentration with methanol.
# A given amount of active compound preparation at the desired concentration is pipetted onto a standardised amount of artificial diet. After the methanol has evaporated ca. 200-300 eggs of the diamond back moth (Plutella xylostella) are added to the diet.
# After the desired time the death rate of the eggs and larvae, respectively, in % is determined. Here 100% means that all animals were killed; 0% means that no animals were killed.
# [8] = system: adult engorged females of Boophilus microplus (strain Parkhurst-SP resistant); test: Test with resistant monoxenous cattle ticks/SP-resistant Parkhurst strain, injection method; conditions: 20 μg/animal injected into the abdomen
# Method: 10 mg of the active compound are dissolved in 0.5 ml dimethylsulphoxide, lower concentrations are prepared by dilution with the same solvent.
# The test is carried out five times. 1 μl is injected into the abdomen, the animals are transferred into dishes and stored in an air-conditioned room. The control of activity is carried out on a deposit of fertile eggs after 7 days. Eggs, the fertility of which was not visible externally, were stored in glass tubes in an incubator until larvae hatch after about 24 days. An activity of 100% means that no ticks laid fertile eggs.
# [9] = system: larvae of the mustard leaf beetle (Phaedon cochleariae); test: Phaedon cochleariae test (spray treatment); conditions: 500 g/ha
# Method: [table] To prepare a suitable active compound preparation 1 part by weight of the active compound is mixed with the given amount of solvent and emulsifier and the concentrate is diluted to the desired concentration with water containing emulsifier. Chinese cabbage leaf sections (Brassica pekinensis) are sprayed with an active compound preparation at the desired concentration and after drying are infected with larvae of the mustard leaf beetle (Phaedon cochleariae). After the desired time the activity in % is determined.
smiles,measurement,setting,value
CC1OC(=O)C=C1N(C)Cc1ccc(Cl)nc1 (stereo not drawn),pest or weed control at 500 g/ha,[1],100%
CN(Cc1ccc(Cl)nc1)C1=CC(=O)CCC1,pest or weed control at 500 g/ha,[1],90%
O=C1C=C(N(Cc2ccc(Cl)nc2)C2CC2)CC1,pest or weed control at 500 g/ha,[1],100%
CN(Cc1ccc(Cl)cn1)C1=CC(=O)CC1,Death rate in % after 6 d,[2],95%
O=C1C=C(NCc2ccc(Cl)nc2)CCC1 [Compound 1],activity after 7 days,[3],100%
same,activity after 5 days,[1],100%
CCCN(Cc1ccc(Cl)nc1)C1=CC(=O)CCC1 [Compound 4],activity after 5 days,[1],100%
C=CCN(Cc1ccc(Cl)nc1)C1=CC(=O)CCC1 [Compound 9],activity after 5 days,[1],100%
C#CCN(Cc1ccc(Cl)nc1)C1=CC(=O)CCC1 [Compound 10],activity after 5 days,[1],100%
Cn1c(NCc2ccc(Cl)nc2)cc(=O)n(C)c1=O [Compound 70],activity after 5 days,[1],100%
CCN(Cc1ccc(Cl)nc1)C1=CC(=O)OC1 [Compound 85],Death rate in % after 7 d,[4],100%
same,Death rate in % after 7 d,"[5]; spray on maize leaf sections, after 7 d",100%
same,death rate after 2 days,Lucilia cuprina larvae,100%
C=CCN(Cc1ccc(Cl)nc1)C1=CC(=O)OC1 [Compound 91],Death rate in % after 7 d,"[6]; 20 g/ha (so in the source), after 7 d",100%
C#CCN(Cc1ccc(Cl)nc1)C1=CC(=O)OC1 [Compound 92],activity after 5 days,[1],100%
CC(=O)N(Cc1ccc(Cl)nc1)C1=CC(=O)OC1 [Compound 94],activity after 5 days,[1],100%
CON(Cc1ccc(Cl)nc1)C1=CC(=O)OC1 [Compound 98],activity after 7 days,[6],100%
same,activity after 5 days,[1],100%
same,death rate after 2 days,Lucilia cuprina larvae,100%
CN(Cc1ccc(Cl)nc1)C1=C(F)C(=O)OC1 [Compound 104],death rate after 2 days,Lucilia cuprina larvae,100%
CN(Cc1ccc(Cl)nc1)C1=CC(=O)SC1 [Compound 112],Death rate in % after 7 d,[7],100%
CN(Cc1ccc(Br)nc1)C1=CC(=O)OC1 [Compound 121],activity (no fertile eggs laid),[8],95%
same,activity after 7 days,"[5]; spray, after 7 days",100%
same,activity after 7 days,[6],100%
same,activity after 5 days,[1],100%
same,death rate after 2 days,Lucilia cuprina larvae,100%
O=C1C=C(N(Cc2ccc(F)nc2)C2CC2)CO1 [Compound 124],activity after 5 days,[1],100%
CN(Cc1ccc(C(F)(F)F)nc1)C1=CC(=O)OC1 [Compound 125],activity (no fertile eggs laid),[8],80%
same,activity after 7 days,[6],100%
same,activity after 5 days,[1],100%
same,death rate after 2 days,Lucilia cuprina larvae,90%
O=C1C=C(N(Cc2ccc(C(F)(F)F)nc2)C2CC2)CO1 [Compound 126],activity after 5 days,[1],100%
CN(Cc1cnc(Cl)s1)C1=CC(=O)OC1 [Compound 144],Death rate in % after 7 d,[4],99%
CN(Cc1cccnc1)C1=CC(=O)OC1 [Compound 147],activity after 5 days,[1],100%
CN(Cc1ccc(Cl)nc1)C1=CC(=O)CC1 [Compound 175],death rate after 2 days,Lucilia cuprina larvae,100%
CN(Cc1ccc(Cl)nc1)C1=CC(=O)OC1 [drawing 472],pest or weed control at 500 g/ha,[1],100%
CCN(Cc1ccc(Cl)nc1)C1=CC(=O)OC1 [drawing 473],pest or weed control at 500 g/ha,[1],90%
CN(Cc1cnc(Cl)s1)C1=CC(=O)OC1 [drawing 474],pest or weed control at 500 g/ha,[1],100%
O=C1C=C(NCc2ccc(Cl)nc2)CO1 [drawing 475],pest or weed control at 500 g/ha,[1],90%
CN(Cc1ccc(Cl)nc1)C1=C(F)C(=O)OC1 [drawing 477],pest or weed control at 500 g/ha,[1],100%
O=C1C=C(N(Cc2ccc(Cl)nc2)C2CC2)CO1 [drawing 478],pest or weed control at 500 g/ha,[1],100%
C=CCN(Cc1ccc(Cl)nc1)C1=CC(=O)OC1 [drawing 479],pest or weed control at 500 g/ha,[1],100%
CN(Cc1ccc(Cl)nc1)C1=CC(=O)CC1 [drawing 481],pest or weed control at 500 g/ha,[1],100%
CN(Cc1ccc(Cl)nc1)C1=CC(=O)SC1 [drawing 483],pest or weed control at 500 g/ha,[1],80%
CN(Cc1ccc(Cl)nc1)C1=CC(=O)OC1 [drawing 484],Death rate in % after 7 d,[9],100%
CCN(Cc1ccc(Cl)nc1)C1=CC(=O)OC1 [drawing 485],Death rate in % after 7 d,[9],100%
O=C1C=C(N(Cc2ccc(Cl)nc2)C2CC2)CO1 [drawing 486],Death rate in % after 7 d,[9],100%
C=CCN(Cc1ccc(Cl)nc1)C1=CC(=O)OC1 [drawing 487],Death rate in % after 7 d,[9],67%
CN(Cc1ccc(Cl)nc1)C1=CC(=O)OC1 [drawing 493],Death rate in % after 6 d,[2],100%
O=C1C=C(NCc2ccc(Cl)nc2)CO1 [drawing 494],Death rate in % after 6 d,[2],98%
C=CCN(Cc1ccc(Cl)nc1)C1=CC(=O)OC1 [drawing 495],Death rate in % after 6 d,[2],95%
